The assay has as its target T1, Human M4 (Homo sapiens, UniProt P08173).
T1 construct: expressed in transfected cells; host or cells: CHO-K1 (ATCC), stably expressing hM4 and Gqi5
T1 sequence (P08173 1-479): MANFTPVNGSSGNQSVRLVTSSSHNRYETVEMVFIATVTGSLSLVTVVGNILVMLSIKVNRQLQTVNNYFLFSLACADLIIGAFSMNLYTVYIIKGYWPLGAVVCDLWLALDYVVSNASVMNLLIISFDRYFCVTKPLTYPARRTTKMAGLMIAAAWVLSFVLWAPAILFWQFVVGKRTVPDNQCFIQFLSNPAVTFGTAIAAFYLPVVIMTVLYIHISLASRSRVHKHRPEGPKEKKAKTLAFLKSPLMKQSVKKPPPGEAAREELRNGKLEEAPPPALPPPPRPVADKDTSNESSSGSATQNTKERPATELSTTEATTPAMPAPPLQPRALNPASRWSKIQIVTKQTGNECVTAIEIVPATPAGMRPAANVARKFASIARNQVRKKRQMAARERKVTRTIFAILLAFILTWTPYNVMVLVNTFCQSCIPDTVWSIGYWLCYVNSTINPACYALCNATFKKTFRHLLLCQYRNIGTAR
Put plainly: mAChR M4 cell-based functional assay (calcium flux, potentiation of EC20 acetylcholine response) in hM4-Gqi5 CHO-K1 cells. The following applies: for Emax at 30 µM: % ACh maximum at 30 μM, human M4 CHO-K1 cells; for EC50: CHO-K1 cells transfected with human M4 and Gqi5, positive allosteric modulator activity, EC20 acetylcholine. The procedure:
Human M4 cDNA, along with the chimeric G protein Gqi5, were transfected into Chinese hamster ovary (CHO-K1) cells purchased from the American Type Culture Collection using commercially available Lipofectamine 2000 transfection reagent (Dalby, B. et al., Methods (2004) 33(2), 95-103). hM4-Gqi5 cells were grown in Ham's F-12 medium containing 10% heat-inactivated fetal bovine serum (FBS), 20 mM HEPES, 50 μg/mL G418 sulfate (CAS #108321-42-2), and 500 μg/mL Hygromycin B. rM4-Gqi5 cells were grown in DMEM containing 10% heat-inactivated FBS, 20 mM HEPES, 400 μg/mL G418 sulfate, and 500 μg/mL Hygromycin B.
For high throughput measurement of agonist-evoked increases in intracellular calcium, CHO-K1 cells stably expressing muscarinic receptors were plated in growth medium lacking G418 sulfate and hygromycin at 15,000 cells/20 μL/well in Greiner 384-well black-walled, tissue culture (TC)-treated, clear-bottom plates (VWR). Cells were incubated overnight at 37° C. and 5% CO2. The next day, cells were washed using an ELX 405 (BioTek) with assay buffer; the final volume was then aspirated to 20 μL. Next, 20 μL of a 2.3 μM stock of Fluo-4/acetoxymethyl ester (Invitrogen, Carlsbad, CA), prepared as a 2.3 mM stock in DMSO and mixed in a 1:1 ratio with 10% (w/v) Pluronic F-127 and diluted in assay buffer, was added to the wells and the cell plates were incubated for 50 minutes at 37° C. and 5% CO2. Dye was removed by washing with the ELX 405 and the final volume was aspirated to 20 μL. Compound master plates were formatted in an 11 point concentration-response curve (CRC) format (1:3 dilutions) in 100% DMSO with a starting concentration of 10 mM using a BRAVO liquid handler (Agilent). Test compound CRCs were then transferred to daughter plates (240 nL) using the Echo acoustic plate reformatter (Labcyte, Sunnyvale, CA) and then diluted into assay buffer (40 μL) to a 2× stock using a Thermo Fisher Combi (Thermo Fisher Scientific, Waltham, MA).
Calcium flux was measured using the Functional Drug Screening System (FDSS) 6000 or 7000 (Hamamatsu Corporation, Tokyo, Japan) as an increase in the fluorescent static ratio. Compounds were applied to cells (20 μL, 2×) using the automated system of the FDSS at 2-4 seconds into the protocol and the data were collected at 1 Hz. […] Agonist activity was analyzed as a concentration-dependent increase in calcium mobilization upon compound addition. Positive allosteric modulator activity was analyzed as a concentration-dependent increase in the EC20 acetylcholine response. With the acetylcholine EC20 set as baseline, the test compound EC50 is determined as the concentration that produces an increase above baseline of 50% of the maximum increase in acetylcholine response elicted by the test compound. Antagonist activity was analyzed as a concentration-dependent decrease in the EC80 acetylcholine response. Concentration-response curves were generated using a four-parameter logistical equation in XLFit curve fitting software (IDBS, Bridgewater, NJ) for Excel (Microsoft, Redmond, WA) or Prism (GraphPad Software, Inc., San Diego, CA).
Compounds were synthesized as described above. Activity (EC50 and Emax) was determined in the mAChR M4 cell-based functional assay as described above and the data are shown in Table 5. The compound numbers correspond to the compound numbers used in Examples 1-13 and Tables 1, 2, and 3.

SMILES strings stand for the structures.

This is an account of results in patent publication US20250017935A1, “7,8-DIHYDRO-5H-1,6-NAPHTHYRIDINE DERIVATIVES AS POSITIVE ALLOSTERIC MODULATORS OF THE MUSCARINIC ACETYLCHOLINE RECEPTOR M4 FOR TREATING NEUROLOGICAL AND PSYCHIATRIC DISORDERS” (Vanderbilt University, priority 2021, published 2025).

By Emax is commonly meant the greatest response seen or fitted, relative to the assay's reference. By EC50 is commonly meant the concentration giving half of the maximal effect.

On to `Cc1sc2ncnc(N3CCc4ncc(C(F)(F)F)cc4C3)c2c1C` [Compound 1, 5,6-dimethyl-4-[3-(trifluoromethyl)-7,8-dihydro-5H-1,6-naphthyridin-6-yl]thieno[2,3-d]pyrimidine], for which the Emax at 30 µM was 85% and the EC50 was found to be 610 nM.
`Cc1cc2c(N3CCc4ncc(N5CCCn6nccc65)cc4C3)ncnc2s1` [Compound 2, 4-[3-(6,7-dihydro-5H-pyrazolo[1,5-a]pyrimidin-4-yl)-7,8-dihydro-5H-1,6-naphthyridin-6-yl]-6-methyl-thieno[2,3-d]pyrimidine]: the Emax at 30 µM came out at 106% and the EC50 came out at 30 nM.
The corresponding values for `Cc1cc2c(N3CCc4ncc(Oc5ccccc5F)cc4C3)ncnc2s1` [Compound 3, 4-[3-(2-fluorophenoxy)-7,8-dihydro-5H-1,6-naphthyridin-6-yl]-6-methyl-thieno[2,3-d]pyrimidine] are 80% and 630 nM.
For `Cc1csc2c(N3CCc4ncc(-c5cnn(C6CC6)c5)cc4C3)ncnc12` [Compound 4, 4-[3-(1-cyclopropylpyrazol-4-yl)-7,8-dihydro-5H-1,6-naphthyridin-6-yl]-7-methyl-thieno[3,2-d]pyrimidine], in that order: 43% and 770 nM.
For `Cc1ncc(-c2cnc3c(c2)CN(c2ncnc4c(C)csc24)CC3)s1` [Compound 5, 7-methyl-4-[3-(2-methylthiazol-5-yl)-7,8-dihydro-5H-1,6-naphthyridin-6-yl]thieno[3,2-d]pyrimidine], in that order: 35% and 310 nM.
Consider `Cc1ncc(-c2cnc3c(c2)CN(c2ncnc4sccc24)CC3)s1` [Compound 6, 4-[3-(2-methylthiazol-5-yl)-7,8-dihydro-5H-1,6-naphthyridin-6-yl]thieno[2,3-d]pyrimidine], for which the Emax at 30 µM came out at 45% and the EC50 was 100 nM.
For `Cc1nc(N2CCc3ncc(C(F)(F)F)cc3C2)c2c(C)c(C)sc2n1` [Compound 7, 2,5,6-trimethyl-4-[3-(trifluoromethyl)-7,8-dihydro-5H-1,6-naphthyridin-6-yl]thieno[2,3-d]pyrimidine], in that order: 88% and 3280 nM.
For `Cc1csc2ncnc(N3CCc4ncc(C(F)(F)F)cc4C3)c12` [Compound 8, 5-methyl-4-[3-(trifluoromethyl)-7,8-dihydro-5H-1,6-naphthyridin-6-yl]thieno[2,3-d]pyrimidine], in that order: 78% and 30 nM.
For `Cc1cc2c(N3CCc4ncc(C(F)(F)F)cc4C3)ncnc2s1` [Compound 9, 6-methyl-4-[3-(trifluoromethyl)-7,8-dihydro-5H-1,6-naphthyridin-6-yl]thieno[2,3-d]pyrimidine], in that order: 76% and 30 nM.
Regarding `FC(F)(F)c1cnc2c(c1)CN(c1ncnc3ccsc13)CC2` [Compound 10, 4-[3-(trifluoromethyl)-7,8-dihydro-5H-1,6-naphthyridin-6-yl]thieno[3,2-d]pyrimidine], the Emax at 30 µM was 79% and the EC50 was found to be 120 nM.
The corresponding values for `Cc1csc2c(N3CCc4ncc(C(F)(F)F)cc4C3)ncnc12` [Compound 11, 7-methyl-4-[3-(trifluoromethyl)-7,8-dihydro-5H-1,6-naphthyridin-6-yl]thieno[3,2-d]pyrimidine] are 63% and 500 nM.
For `Cc1cc2c(N3CCc4ncc(-c5cn(C)nc5C)cc4C3)ncnc2s1` [Compound 12, 4-[3-(1,3-dimethylpyrazol-4-yl)-7,8-dihydro-5H-1,6-naphthyridin-6-yl]-6-methyl-thieno[2,3-d]pyrimidine], in that order: 74% and 230 nM.
Take `Cc1cc2c(N3CCc4ncc(N5CCOc6ncccc65)cc4C3)ncnc2s1` [Compound 13, 1-[6-(6-methylthieno[2,3-d]pyrimidin-4-yl)-7,8-dihydro-5H-1,6-naphthyridin-3-yl]-2,3-dihydropyrido[2,3-b][1,4]oxazine]: the Emax at 30 µM was 121% and the EC50 was determined as 70 nM.
The corresponding values for `Cc1ccc(-c2cnc3c(c2)CN(c2ncnc4sc(C)cc24)CC3)cn1` [Compound 14, 6-methyl-4-[3-(6-methyl-3-pyridyl)-7,8-dihydro-5H-1,6-naphthyridin-6-yl]thieno[2,3-d]pyrimidine] are 97% and 190 nM.
The corresponding values for `Cc1ccc(-c2cnc3c(c2)CN(c2ncnc4c(C)csc24)CC3)cn1` [Compound 15, 7-methyl-4-[3-(6-methyl-3-pyridyl)-7,8-dihydro-5H-1,6-naphthyridin-6-yl]thieno[3,2-d]pyrimidine] are 45% and 550 nM.
For `Cc1csc2ncnc(N3CCc4ncc(N5CCOc6ncccc65)cc4C3)c12` [Compound 16, 1-[6-(5-methylthieno[2,3-d]pyrimidin-4-yl)-7,8-dihydro-5H-1,6-naphthyridin-3-yl]-2,3-dihydropyrido[2,3-b][1,4]oxazine], in that order: 91% and 60 nM.
For the molecule `Cc1ccc(-c2cnc3c(c2)CN(c2ncnc4scc(C)c24)CC3)cn1` [Compound 17, 5-methyl-4-[3-(6-methyl-3-pyridyl)-7,8-dihydro-5H-1,6-naphthyridin-6-yl]thieno[2,3-d]pyrimidine], the Emax at 30 µM was 79% and the EC50 amounted to 180 nM.
The corresponding values for `Cc1ncc(-c2cnc3c(c2)CN(c2ncnc4scc(C)c24)CC3)s1` [Compound 18, 5-methyl-4-[3-(2-methylthiazol-5-yl)-7,8-dihydro-5H-1,6-naphthyridin-6-yl]thieno[2,3-d]pyrimidine] are 72% and 470 nM.
Take `Cc1ccc(Oc2cnc3c(c2)CN(c2ncnc4scc(C)c24)CC3)c(F)c1` [Compound 19, 4-[3-(2-fluoro-4-methyl-phenoxy)-7,8-dihydro-5H-1,6-naphthyridin-6-yl]-5-methyl-thieno[2,3-d]pyrimidine]: the Emax at 30 µM is 58% and the EC50 amounted to 1840 nM.
The corresponding values for `Cc1cc2c(N3CCc4ncc(-c5cnn(C6CC6)c5)cc4C3)ncnc2s1` [Compound 20, 4-[3-(1-cyclopropylpyrazol-4-yl)-7,8-dihydro-5H-1,6-naphthyridin-6-yl]-6-methyl-thieno[2,3-d]pyrimidine] are 91% and 470 nM.
As to `Cc1cc2c(N3CCc4ncc(-c5cnc(C)s5)cc4C3)ncnc2s1` [Compound 21, 6-methyl-4-[3-(2-methylthiazol-5-yl)-7,8-dihydro-5H-1,6-naphthyridin-6-yl]thieno[2,3-d]pyrimidine], the Emax at 30 µM was 88% and the EC50 is 250 nM.
The corresponding values for `Cc1csc2c(N3CCc4ncc(N5CCCn6nccc65)cc4C3)ncnc12` [Compound 22, 4-[3-(6,7-dihydro-5H-pyrazolo[1,5-a]pyrimidin-4-yl)-7,8-dihydro-5H-1,6-naphthyridin-6-yl]-7-methyl-thieno[3,2-d]pyrimidine] are 85% and 280 nM.
